Measurements: patent US20080045512A1, “Benzoate salt of 4-(5-methyl-oxazolo[4,5-b]-pyridin-2-yl)-1,4-diazabicyclo[3.2.2]nonane” (Pfizer Inc., priority 2006, published 2008)
Where a name gives a salt, the structure may show the parent alone. Blank lines part the entries; values can stand above or below the molecule they belong to.

Tests used:
[1] = Hygroscopicity by dynamic vapor sorption (isothermal moisture sorption analysis); format: physicochemical; conditions: for hygroscopicity (result in words): dynamic vapor sorption, 25° C.
Description: Hygroscopicity was assessed using a dynamic vapor sorption technique in which an accurately weighed sample is subjected to progressively changing water vapor pressure while simultaneously recording the weight change. The experiment is conducted isothermally at 25° C.
For 4-(5-methyloxazolo[4,5-b]pyridin-2-yl)-1,4-diazabicyclo[3.2.2]nonane benzoate Form A, less than 0.1% increase in weight was detected at 90±2% relative humidity during an isothermal (24.9±0.1° C.) moisture sorption analysis conducted from approximately 1% to 90% (±2%) humidity. Considering standard deviation, it is considered that increase in weight is less than 0.2%.

[2] = Comparison of salts of Formula I: physical properties tested and observed; format: physicochemical
Description: Physical properties of various salts of Formula I were tested and observed.

[3] = cited from earlier work
[4] = cited from earlier work; remark: listed apart in the source

Molecule: Cc1ccc2oc(N3CCN4CCC3CC4)nc2n1 [benzoate salt of Formula I, 4-(5-methyloxazolo[4,5-b]pyridin-2-yl)-1,4-diazabicyclo[3.2.2]nonane benzoate]
increase in weight in moisture sorption analysis ([1]; at 90±2% relative humidity, isothermal 24.9±0.1° C., from approximately 1% to 90% (±2%) humidity): less than 0.1%
hygroscopicity (result in words) [1]: relatively non-hygroscopic
hygroscopicity (result in words) ([1]; listed as 4-(5-methyloxazolo[4,5-b]pyridin-2-yl)-1,4-diazabicyclo[3.2.2]nonane benzoate Fo): non-hygroscopic

hygroscopicity (result in words) [2]: undesirable hygroscopicity
Molecule: fumarate

hygroscopicity (result in words) [2]: undesirable hygroscopicity
Molecule: L-lactate

Molecule: O=C1Cc2cc(CCN3CCN(c4nsc5ccccc45)CC3)c(Cl)cc2N1 [Ziprasidone, 5-[2-[4-(1,2-benzisothiazol-3-yl)piperazin-1-yl]ethyl]-6-chloroindolin-2-one]
half-life ([3]; in vivo): 6 to 7 h
Oral bioavailability ([3]; taken with food): approximately 60%
protein binding [4]: extensive
